# Assays:
# [1] = tested on: live cells; experiment: Toxicity of HEDS to live cells; type: cell-based; conditions: live cells reducing HEDS to mercaptoethanol
# From the text: In a particular embodiment, the assay of the instant invention use hydroxyethyldisulfide (HEDS), a unique non-toxic disulfide, to measure glucose dependent metabolic activity of live cells in vitro. The survival of cells is directly proportional to the conversion of HEDS into mercaptoethanol (ME) by metabolically active live cells. Dead cells fail to convert HEDS into mercaptoethanol. Accordingly, the assays of the instant invention generally encompass contacting cells (e.g., live cells) with HEDS and then monitoring or measuring the amount of extracellular ME. The amount of ME produced from HEDS can be measured in the extracellular medium since ME is extruded out quickly into the extracellular medium. Extracellular ME may be measured, for example, by a dithiobiznitrobenzoic acid (DTNB) assay or High Performance Liquid Chromatography/Electrochemical Detection (HPLC/EC): The cells of the assay may be any cell that produces NADPH, particularly mammalian cells and yeast. The percentage of live cells may be determined by the amount of ME produced.
# The ME produced inside the cells is extruded into the extracellular medium. This conversion mediated by the antioxidant system can be measured in the extracellular medium without the need for cellular extract. HPLC electrochemical detector was used to quantify the conversion of HEDS into mercaptoethanol in mammalian cells in tissue culture. […]
# [2] = tested on: human cells; type: cell-based
# [3] = tested on: human HCT116 cells; type: cell-based
# [4] = tested on: human HCT116 cells
Compound,toxic effect on cells [1],decrease of the ME peak (HEDS conversion) [2] [%],HEDS conversion [3],survival of cells (arsenite toxicity) [4]
"OCCSSCCO [HEDS, hydroxyethyldisulfide]",no toxic effect on cells,–,–,–
arsenite,–,~70,concentration dependent decrease in HEDS conversion,concentration dependent decrease in the survival

# — patent US8697391B2, “Method of determining cell number or viability using hydroxyethyldisulfide” (priority 2009, dated 2014)
